Source: PubChem BioAssay (NCI)
Several values for one entry are separate records, joined by “and”; a condition that tells them apart may be missing. Equal values may be shown once.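 Values below derive from 48-hour exposures of cells grown in 96-well plates, with endpoints linearly interpolated between the two concentrations bracketing the appropriate inhibition level. GI50 is the concentration that inhibits growth by half. The concentration for full growth arrest is given as TGI.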

Columns and labels:
Assay in all cases: NCI tumour cell line growth inhibition, 48 h
A498 renal = test system: A498 renal
EKVX NSCLC = test system: EKVX NSCLC
KM12 colon = test system: KM12 colon
OVCAR-5 ovarian = test system: OVCAR-5 ovarian
OVCAR-8 ovarian = test system: OVCAR-8 ovarian
RXF 393 renal = test system: RXF 393 renal
SF-268 CNS = test system: SF-268 CNS
SNB-19 CNS = test system: SNB-19 CNS
MDA-MB-435 = test system: MDA-MB-435
RPMI-8226 leukemia = test system: RPMI-8226 leukemia

Row | Compound | GI50 (A498 renal) [µM] | TGI (A498 renal) [µM] | GI50 (EKVX NSCLC) [µM] | TGI (EKVX NSCLC) [µM] | GI50 (KM12 colon) [µM] | TGI (KM12 colon) [µM] | GI50 (OVCAR-5 ovarian) [µM] | TGI (OVCAR-5 ovarian) [µM] | GI50 (OVCAR-8 ovarian) [µM] | TGI (OVCAR-8 ovarian) | GI50 (RXF 393 renal) [µM] | TGI (RXF 393 renal) [µM] | GI50 (SF-268 CNS) [µM] | TGI (SF-268 CNS) [µM] | GI50 (SNB-19 CNS) [µM] | TGI (SNB-19 CNS) [µM] | GI50 (MDA-MB-435) [µM] | TGI (MDA-MB-435) [µM] | GI50 (RPMI-8226 leukemia) | TGI (RPMI-8226 leukemia)
1 | O=C(O)C1(Cc2cccc(Nc3nccs3)n2)CCC(Oc2cccc(Cl)c2F)CC1 (stereo not given) | 3.95 | 19.4 | 13.6 | 47.4 | 0.204 | 29.3 | 13.8 | > 81.7 | 18.9 | > 100 µM | 0.0488 | 12.8 | 25.1 | > 100 | 20 | 73.9 | – | – | – | –
2 | CCCCC#CC#Cc1cccc(=O)o1 | – | – | 49 | > 100 | 13.5 | 27.4 | 22.3 | 46.6 | 26.4 | 62.9 µM | 32.9 | > 100 | 41.4 | > 100 | 12.6 | 27.7 | 22 | 48.6 | 10.5 µM | 90.8 µM
3 | COc1ccc(-c2cc(=O)c3c(O)cc(C)cc3o2)cc1OC | – | – | – | > 100 | – | > 100 | – | > 100 | – | – | – | > 100 | – | > 100 | – | > 100 | – | > 100 | – | > 100 µM
4 | Cc1cc(C)c(S(=O)(=O)ONC(=O)OC(C)(C)C)c(C)c1 | – | > 100 | – | > 100 | – | > 100 | – | > 100 | – | > 100 µM | – | > 100 | – | > 100 | – | > 100 | – | – | – | > 100 µM
5 | CCC[CH2][Sn]([CH2]CCC)([O]C(=O)C1CCC(=O)N1)[O]C(=O)C1CCC(=O)N1 (stereo not given) | 0.21 | 0.517 | 0.264 | 0.918 | 0.496 | 1.73 | 2.05 | 3.48 | 0.319 | 1.01 µM | 0.3 | 0.473 | – | – | 0.303 | 0.909 | – | – | 0.124 µM | 0.669 µM
6 | c1ccc(COCC2OC3c4ccccc4COC3C2OCc2ccccc2)cc1 (stereo not given) | – | – | – | > 100 | – | > 100 | – | > 100 | – | > 100 µM | – | > 100 | – | – | – | > 100 | – | – | – | > 100 µM
7 | COC(OC)[C@@H](C)[C@H](O)[C@](C)(O)C1OC(C)(C)OC(C(C)C=C(C)C)C1C (stereo not given in full) | – | > 100 | – | > 100 | – | > 100 | – | > 100 | – | > 100 µM | – | > 100 | – | > 100 | – | > 100 | – | – | – | > 100 µM
8 | CC(=O)[O-].O=C([CH-]C(=O)c1ccccc1)c1ccccc1.O=C([CH-]C(=O)c1ccccc1)c1ccccc1.[Y+3] | 16.7 | 41.1 | 3.59 | 17.8 | 4.36 | 24.5 | 17.3 | 80.6 | 3.04 | 20.6 µM | – | – | 4.27 | 31.3 | 6.17 | 64.7 | – | – | 4.47 µM | 33 µM
9 | OC(c1ccccn1)C1CNc2ccccc21 (stereo not given) | – | > 100 | – | > 100 | – | > 100 | – | > 100 | – | > 100 µM | – | > 100 | – | > 100 | – | > 100 | – | – | – | > 100 µM
10 | O=C1C(Cl)=C(Nc2cccc(O)c2)C(=O)N1c1ccccc1Cl | – | – | 76.1 | > 100 | 59.5 | > 100 | 55.2 | > 100 | 32.1 | > 100 µM | 7.87 | 41.2 | 13.6 | 60.6 | 40.6 | > 100 | 37.2 | > 100 | 10.4 µM | 35.1 µM
11 | Cc1ccc(C)c(NC(=O)CCc2nc(=S)[nH][nH]2)c1 | – | > 100 | – | > 100 | – | > 100 | – | > 100 | – | > 100 µM | – | > 100 | – | > 100 | – | > 100 | – | – | – | > 100 µM
12 | CCC1CCc2nc3sc(C(=O)Nc4ccccc4C)c(N)c3cc2C1 (stereo not given) | 0.313 | > 100 | – | – | 0.502 | > 100 | – | – | > 100 | > 100 µM | 0.316 | 40.7 | 0.706 | > 100 | 0.911 | > 100 | – | – | 0.329 µM | > 100 µM
13 | CC(=O)OC1CC2C(C)(C)C(=O)C=CC2(C)C2CCC3(C)C(c4ccoc4)OC(=O)C4OC43C12C (stereo not given) | – | > 100 | – | > 100 | – | 19.4 | – | > 100 | – | 53.9 µM | – | 27.2 | – | > 100 | – | > 100 | – | – | – | 8.02 µM
14 | COc1cc(-c2cc(=O)c3cc(C)c(C)c(C(=O)O)c3o2)cc(OC)c1OC | – | > 100 | – | > 100 | – | > 100 | – | > 100 | – | > 100 µM | – | – | – | > 100 | – | > 100 | – | – | – | > 100 µM
15 | COc1ccc(C(=O)c2cc3c(N)c(C(=O)Nc4cccc(Cl)c4C)sc3nc2C)cc1 | 0.0691 | 0.558 | 0.134 | > 25 | 0.106 | > 25 | 0.266 | > 25 | 0.125 | > 25 µM | – | – | 0.419 | > 25 | 0.117 | > 25 | – | – | 0.0918 µM | –
16 | CCCCCCCCCCCCN(O)C(=O)c1ccccc1 | – | 88.3 | – | 84.2 | – | > 100 | – | 82.2 | – | 74.3 µM | – | > 100 | – | 72.2 | – | > 100 | – | – | – | > 100 µM
17 | O=C1C2c3[nH]c4ccccc4c3[C@@H]3CCCCC3C2C(=O)N1c1ccccc1 (stereo not given in full) | – | 71.9 | – | 37.5 | – | 39.3 | – | 51.8 | – | 52.9 µM | – | 32.7 | – | 62.9 | – | > 100 | – | – | – | 47.7 µM
18 | Cc1ccc2[nH]c3c(ncc4[nH]c5ccccc5c43)c2c1 | – | – | – | 29.3 | – | 29.6 | – | 30.8 | – | 35.9 µM | – | 27.2 | – | 32.4 | – | 31.6 | – | – | – | 44.3 µM
19 | CCC(C(=O)[O-])C(=O)[O-].CCC(C(=O)[O-])C(=O)[O-].N.N.NCCCCCCN.[Pt+4].[Pt+4] | 8.85 | 18.1 | 20.7 | 33.3 | 8.83 | 16.8 | 10.7 | 19.7 | 11.5 | 28.1 µM | 4.49 | 10.1 | 11.2 | 24 | 10.3 | 21.9 | – | – | 3.66 µM | 11.9 µM
20 | O=C1/C(=C/c2ccccc2)CN(C(=O)OCc2ccccc2)C/C1=C\c1ccccc1 | – | > 31.6 | – | > 31.6 | 2.68 | 14.8 | – | 30.8 | 3.05 | 9.39 µM and 20.3 µM | – | 19.8 | – | 30.7 | – | > 46.4 | – | – | 0.169 µM and 0.2 µM | 0.737 µM and 0.647 µM
21 | CC1=C(c2cc(C(=O)Nc3cccc(C(F)(F)F)c3)ncn2)Sc2ccccc2N1 | – | > 100 | – | > 100 | – | > 100 | – | – | – | > 100 µM | – | – | – | > 100 | – | > 100 | – | – | – | > 100 µM
22 | O=C(NNC(=O)c1cc(/C=C/c2cccc([N+](=O)[O-])c2)[nH]c(=S)n1)Nc1ccc(Cl)cc1 | – | > 100 | – | > 100 | – | > 100 | – | > 100 | – | > 100 µM | – | > 100 | – | > 100 | – | – | – | – | – | 52.9 µM
23 | COC12CC(=O)C(C(C)=O)=C(O)C1(C)c1c(OC(C)=O)c(C)c(O)c(C(C)=O)c1O2 (stereo not given) | – | 78.1 | – | 93.6 | – | > 100 | – | > 100 | – | > 100 µM | – | 62.5 | – | > 100 | – | > 100 | – | – | – | > 100 µM
24 | O=C(CC(=O)C1CCOC1=O)C(=O)Nc1ccc(Cl)cc1Cl (stereo not given) | – | > 100 | – | > 100 | – | > 100 | – | > 100 | – | > 100 µM | – | > 100 | – | > 100 | – | > 100 | – | – | – | > 100 µM
25 | O=C([O-])c1ccc(C(=O)[O-])cc1.O=C([O-])c1ccc(C(=O)[O-])cc1.[Mo+2].[Mo+2] | – | – | > 100 | > 100 | > 100 | > 100 | > 100 | > 100 | > 100 | > 100 µM | > 100 | > 100 | > 100 | > 100 | > 100 | > 100 | – | – | > 100 µM | > 100 µM
26 | N#CC1(C=O)c2ccccc2C=CN1C(=O)c1ccccc1 (stereo not given) | – | > 100 | – | > 100 | – | > 100 | – | – | – | > 100 µM | – | 53.8 | – | > 100 | – | > 100 | – | – | – | –
27 | CCOC(=O)NC(=O)c1cn(CCN2CCN(C(=O)CCCCCCCCCCNc3ncnc4nc[nH]c34)CC2)c(=O)[nH]c1=O | – | – | – | > 100 | – | > 100 | – | > 100 | – | > 100 µM | – | > 100 | – | > 100 | – | > 100 | – | – | – | > 100 µM
28 | CN(C)c1n/c(=N/c2ncn[nH]2)ss1 | – | > 100 | – | > 100 | – | > 100 | – | > 100 | – | > 100 µM | – | > 100 | – | > 100 | – | > 100 | – | – | – | > 100 µM
